This is an account of results in patent US12466779B2, “Method for obtaining oleacein and oleomissional type secoiridoids and for producing respective pharmaceutical preparations” (OMPHAX SA, priority 2019, dated 2025).

The test system of data set [1] is HeLa cancer cells. Description: cytotoxic activity on HeLa cancer cells. Type of data set: cell-based. The note with it: read-out: concentration leading to death of 50% of cells.
The nature of data set [2]: water solubility. The settings on record: in comparison with the aldehydic forms (1). Type of data set: physicochemical.
Data set [3] has as its system MCF-7 cancer cells. Put plainly: cytotoxic activity on MCF-7 cancer cells. It is filed as cell-based. The settings on record: read-out: concentration leading to death of 50% of cells.
Data set [4] in a line: storage stability of solutions and syrups. Type of data set: physicochemical. The settings on record: at room temperature; oleacein (1 g) in PEG200 or PEG 400 (5 ml). As to the method:
Dried olive leaves of Kalamata variety (10 kg) with 1% moisture are cut in the presence of water (100 L) at 25° C. and left in contact for 30 min. The mixture is filtered and the aqueous phase is obtained. The aqueous solution is extracted with dichloromethane (80 L) and the dichloromethane layer is obtained and evaporated under vacuum at 30° C. The residue (100 g) is made up of oleacein with a purity of 95%. The oleacein is mixed with water (10 L) under vigorous stirring for 30 min and transformed into a pure oleaceinediol solution. Alternatively, oleacein (1 g) is mixed with PEG200 or PEG 400 (5 ml) and converted into the stable polyethylene glycol hemiacetal. This solution is stable at room temperature for 12 months. This solution can be diluted to 100 ml with a saturated sugar solution affording a syrup containing 1% oleaceinediol, stable for 15-30 days with anti-inflammatory use.
Fresh olive leaves of Koroneiki variety (100 g) are left in contact with dichloromethane (500 g) at 25° C. for 30 min. The mixture is filtered and the organic phase is evaporated under vacuum. The residue is dissolved in deionized and distilled water at pH=6 (100 ml) under stirring for 24 hours, filtered and a solution of pure oleomissional is obtained. The solution is evaporated or lyophilized and oleomissional (160 mg) is obtained with a purity of >95%. […]

Take 5S-(E)-oleomissionadiol: the IC50 in data set [1] and in data set [3] was 50 µM in each case. Besides, in data set [2], the “water solubility with respect to substances (1), (2)” value was “greatly increased water solubility”.
As for 5S-(E)-oleaceinediol, the IC50 in data set [1] and in data set [3] was 5 µM in each case. Also, the “water solubility with respect to substances (1), (2)” value in data set [2] is “greatly increased water solubility”.
Take “polyethylene glycol hemiacetal of oleacein”: in data set [4], the time stable was determined as 12 months.
